Test results published in patent publication US20080003250A1, “NOVEL THERAPY FOR HERPESVIRUS INFECTION” (priority 2006, published 2008).

Key:
[1] = tested on: HSV-1 KOS infected Vero cells; experiment: Efficacy of implants at preventing cytopathic effect in cell culture; format: cell-based; conditions: 48 hours post-infection; 0.22 ug ACV or two implants per well
Description: A six-well culture plate was prepared with 4 mL of Dulbecco's modified Eagles' medium (DMEM) (Invitrogen) supplemented with 10% fetal bovine serum and 1% penicillin-streptomycin-Amphotericin B solution (Mediatech) per well. […] The plate was incubated for two days at 37° C. and 5% CO2. Vero cells (ATCC CCL-81) were then added to each well and allowed to grow for another 48 hours until almost confluent. HSV-1 KOS (9.0×10^3 pfu) (ATCC VR-1493) was added to one of each of the paired wells, and 24 and 48 hours later the cells were photographed with a Nikon D1 2.6 megapixel digital camera, set in black and white mode, attached to an Olympus CK-40 microscope. The resulting digital images were compiled for presentation with Adobe Photoshop.
All mock-infected Vero cells remained healthy 48 hours after infection (FIGS. 8A-8C).

[2] = tested on: HSV-1; conditions: cited from earlier work
[3] = target: host eukaryotic DNA polymerase; conditions: cited from earlier work
[4] = cited from earlier work

Nc1nc2c(ncn2COCCO)c(=O)[nH]1 [ACV, acyclovir]
cytopathic effect (CPE) in HSV-1-infected Vero cells [1]: Moderate CPE (cell rounding)
plaque formation in HSV-1-infected Vero cells [1]: no plaque formation
50% inhibitory dose against HSV-1 [2]: about 0.03 ug/mL

Nc1nc2c(ncn2COCCOP(=O)(O)OP(=O)(O)OP(=O)(O)O)c(=O)[nH]1 [ACV-triphosphate, ACV triphosphate]
Ki [3]: 960 ± 80 nM

CC(C)[C@H](N)C(=O)OCCOCn1cnc2c(=O)[nH]c(N)nc21 [valacyclovir]
bioavailability, of the oral dose consumed [4]: about 50%
